What all share (assay): radioligand saturation binding, dextran-coated charcoal separation
The target of assay [1] is T1, corticosteroid-binding globulin (CBG), deer mouse (Peromyscus maniculatus, UniProt A0A6J0EC89).
T1 construct: gene Serpina6; native protein in charcoal-stripped plasma, not purified
T1 sequence (A0A6J0EC89 23-402): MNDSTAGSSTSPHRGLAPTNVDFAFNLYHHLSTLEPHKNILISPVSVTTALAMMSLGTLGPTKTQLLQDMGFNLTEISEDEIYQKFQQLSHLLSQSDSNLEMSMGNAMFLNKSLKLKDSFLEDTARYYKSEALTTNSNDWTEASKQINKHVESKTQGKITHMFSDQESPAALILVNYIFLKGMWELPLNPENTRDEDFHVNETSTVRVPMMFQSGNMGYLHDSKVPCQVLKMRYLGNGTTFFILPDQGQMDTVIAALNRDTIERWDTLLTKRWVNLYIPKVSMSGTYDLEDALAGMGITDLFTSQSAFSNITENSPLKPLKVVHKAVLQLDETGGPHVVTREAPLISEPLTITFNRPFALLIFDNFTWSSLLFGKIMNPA
The following applies: labelled compound ([1,2,6,7-3H]corticosterone); 37 °C, ≥4 h, PBS with gelatin; separation at 0 °C; plasma 1/200; error SEM.

Assay [2] concerns the target T2, corticosteroid-binding globulin (CBG), meadow vole (Microtus pennsylvanicus, UniProt Z9TXB6IQC5).
T2 construct: native protein in charcoal-stripped plasma, not purified
T2 sequence (Z9TXB6IQC5 21-398): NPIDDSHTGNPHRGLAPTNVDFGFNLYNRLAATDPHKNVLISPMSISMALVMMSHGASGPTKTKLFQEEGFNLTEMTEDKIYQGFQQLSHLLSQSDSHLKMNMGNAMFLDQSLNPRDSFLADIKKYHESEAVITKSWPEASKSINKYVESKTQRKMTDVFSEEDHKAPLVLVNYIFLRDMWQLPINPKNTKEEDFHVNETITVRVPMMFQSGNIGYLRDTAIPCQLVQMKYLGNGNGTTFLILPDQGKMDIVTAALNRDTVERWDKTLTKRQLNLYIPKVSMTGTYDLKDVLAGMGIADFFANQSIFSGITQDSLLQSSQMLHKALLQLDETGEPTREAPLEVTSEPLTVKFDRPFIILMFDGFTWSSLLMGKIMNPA
The following applies: labelled compound ([1,2,6,7-3H]corticosterone); 37 °C, ≥4 h, PBS with gelatin; separation at 0 °C; plasma 1/50; mean of two runs; error SEM.

The target in assay [3] is T3, corticosteroid-binding globulin (CBG), Soay sheep (Ovis aries, UniProt P49920).
T3 construct: gene SERPINA6; native protein in charcoal-stripped plasma, not purified
T3 sequence (P49920 23-430): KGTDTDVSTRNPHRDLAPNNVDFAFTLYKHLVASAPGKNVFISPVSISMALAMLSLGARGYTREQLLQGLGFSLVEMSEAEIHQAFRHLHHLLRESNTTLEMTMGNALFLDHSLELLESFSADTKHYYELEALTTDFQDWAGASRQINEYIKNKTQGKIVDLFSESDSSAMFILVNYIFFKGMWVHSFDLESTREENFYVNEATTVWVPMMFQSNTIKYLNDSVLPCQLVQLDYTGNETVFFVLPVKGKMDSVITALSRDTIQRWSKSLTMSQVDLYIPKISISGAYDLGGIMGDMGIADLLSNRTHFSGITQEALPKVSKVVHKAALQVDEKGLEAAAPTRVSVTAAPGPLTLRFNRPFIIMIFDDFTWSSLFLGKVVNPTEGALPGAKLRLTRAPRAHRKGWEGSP
The following applies: labelled compound ([1,2,6,7-3H]cortisol); 37 °C, ≥4 h, PBS with gelatin; separation at 0 °C; plasma 1/50; error SEM.

For assay [4], the target named is T4, corticosteroid-binding globulin (CBG), Arctic wolf (Canis lupus, UniProt A0A8I3MUM2).
T4 construct: gene SERPINA6; native protein in charcoal-stripped serum (Toronto Zoo), not purified
T4 sequence (A0A8I3MUM2 23-404): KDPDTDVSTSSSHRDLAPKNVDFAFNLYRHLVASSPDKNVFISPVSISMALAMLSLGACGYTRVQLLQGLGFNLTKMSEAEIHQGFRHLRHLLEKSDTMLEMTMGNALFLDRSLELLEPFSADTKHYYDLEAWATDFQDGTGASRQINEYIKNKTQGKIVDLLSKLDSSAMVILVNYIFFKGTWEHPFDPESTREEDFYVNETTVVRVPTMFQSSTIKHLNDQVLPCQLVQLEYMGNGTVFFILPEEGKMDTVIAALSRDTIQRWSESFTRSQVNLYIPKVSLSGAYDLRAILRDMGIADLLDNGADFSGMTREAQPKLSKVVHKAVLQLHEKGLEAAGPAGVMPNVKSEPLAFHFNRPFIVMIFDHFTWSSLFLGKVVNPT
The following applies: labelled compound ([1,2,6,7-3H]cortisol); 37 °C, ≥4 h, PBS with gelatin; separation at 0 °C; serum 1/50; non-specific binding subtracted; error SEM.

Assay [5] has as its target T5, corticosteroid-binding globulin (CBG), Siberian tiger (Panthera tigris, UniProt A0A8C9K299).
T5 construct: native protein in charcoal-stripped serum (Toronto Zoo), not purified
T5 sequence (A0A8C9K299 23-403): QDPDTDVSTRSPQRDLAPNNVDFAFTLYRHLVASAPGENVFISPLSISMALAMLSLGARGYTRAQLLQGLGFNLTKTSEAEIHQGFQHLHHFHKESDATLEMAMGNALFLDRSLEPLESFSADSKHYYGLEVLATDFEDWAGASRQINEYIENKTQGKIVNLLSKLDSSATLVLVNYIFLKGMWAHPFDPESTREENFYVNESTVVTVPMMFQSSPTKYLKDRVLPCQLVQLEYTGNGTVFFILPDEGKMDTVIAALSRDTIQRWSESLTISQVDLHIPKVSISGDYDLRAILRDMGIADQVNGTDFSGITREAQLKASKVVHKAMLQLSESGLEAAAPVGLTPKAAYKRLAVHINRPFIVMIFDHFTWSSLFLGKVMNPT
The following applies: labelled compound ([1,2,6,7-3H]cortisol); 37 °C, ≥4 h, PBS with gelatin; separation at 0 °C; serum 1/50; non-specific binding subtracted; error SEM.

Assay [6] concerns the target T6, corticosteroid-binding globulin (CBG), Bactrian camel (Camelus bactrianus, UniProt A0A9W3H1V5).
T6 construct: gene LOC105079894; native protein in charcoal-stripped serum (Toronto Zoo), not purified
T6 sequence (A0A9W3H1V5 24-405 limits assumed): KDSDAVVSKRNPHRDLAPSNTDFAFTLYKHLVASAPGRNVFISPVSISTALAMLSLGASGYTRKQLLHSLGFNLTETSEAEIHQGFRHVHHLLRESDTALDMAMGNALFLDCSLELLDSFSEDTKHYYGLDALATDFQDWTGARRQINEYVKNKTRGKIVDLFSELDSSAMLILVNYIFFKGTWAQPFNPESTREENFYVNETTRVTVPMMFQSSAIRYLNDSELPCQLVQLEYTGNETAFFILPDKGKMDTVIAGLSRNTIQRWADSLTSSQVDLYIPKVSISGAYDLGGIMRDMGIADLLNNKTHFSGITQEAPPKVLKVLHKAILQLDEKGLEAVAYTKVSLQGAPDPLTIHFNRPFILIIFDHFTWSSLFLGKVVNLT
The following applies: labelled compound ([1,2,6,7-3H]cortisol); 37 °C, ≥4 h, PBS with gelatin; separation at 0 °C; serum 1/50; non-specific binding subtracted; error SEM.

For assay [7], the target named is T7, corticosteroid-binding globulin (CBG), Arctic ground squirrel (Urocitellus parryii, UniProt A0A8D2GQE2).
T7 construct: gene SERPINA6; native protein in charcoal-stripped plasma, not purified
T7 sequence (A0A8D2GQE2 23-403): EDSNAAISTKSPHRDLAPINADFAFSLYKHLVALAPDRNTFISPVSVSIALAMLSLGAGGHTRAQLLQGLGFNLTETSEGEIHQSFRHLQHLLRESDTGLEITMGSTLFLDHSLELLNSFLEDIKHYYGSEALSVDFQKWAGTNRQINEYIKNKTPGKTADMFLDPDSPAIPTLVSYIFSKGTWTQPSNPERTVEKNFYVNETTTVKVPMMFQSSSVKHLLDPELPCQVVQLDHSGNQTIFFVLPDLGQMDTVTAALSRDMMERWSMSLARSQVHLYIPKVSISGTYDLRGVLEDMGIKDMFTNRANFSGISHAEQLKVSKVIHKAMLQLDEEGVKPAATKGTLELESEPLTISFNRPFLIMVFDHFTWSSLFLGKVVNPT
The following applies: labelled compound ([1,2,6,7-3H]cortisol); 37 °C, ≥4 h, PBS with gelatin; separation at 0 °C; plasma 1/50; mean of four runs; error SEM.

Assay [8] addresses T8, corticosteroid-binding globulin (CBG), cheetah (Acinonyx jubatus, UniProt A0A6I9ZWD2).
T8 construct: gene LOC106977455; native protein in charcoal-stripped serum (Toronto Zoo), not purified
T8 sequence (A0A6I9ZWD2 23-404): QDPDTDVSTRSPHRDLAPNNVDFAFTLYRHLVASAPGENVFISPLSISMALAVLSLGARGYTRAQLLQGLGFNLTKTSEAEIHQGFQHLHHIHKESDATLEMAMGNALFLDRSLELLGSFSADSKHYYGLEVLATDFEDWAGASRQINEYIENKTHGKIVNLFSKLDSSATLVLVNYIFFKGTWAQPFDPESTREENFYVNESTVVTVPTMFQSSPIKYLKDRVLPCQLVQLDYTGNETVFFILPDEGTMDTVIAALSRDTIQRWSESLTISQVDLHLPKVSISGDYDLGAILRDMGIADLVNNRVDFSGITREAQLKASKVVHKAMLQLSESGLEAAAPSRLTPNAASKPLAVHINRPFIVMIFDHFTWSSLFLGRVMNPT
The following applies: labelled compound ([1,2,6,7-3H]cortisol); 37 °C, ≥4 h, PBS with gelatin; separation at 0 °C; serum 1/50; error SEM.

In assay [9] the target is T9, corticosteroid-binding globulin (CBG), alpaca (Vicugna pacos, UniProt A0A6I9IEG0).
T9 construct: gene SERPINA6; native protein in charcoal-stripped serum (Toronto Zoo), not purified
T9 sequence (A0A6I9IEG0 18-405): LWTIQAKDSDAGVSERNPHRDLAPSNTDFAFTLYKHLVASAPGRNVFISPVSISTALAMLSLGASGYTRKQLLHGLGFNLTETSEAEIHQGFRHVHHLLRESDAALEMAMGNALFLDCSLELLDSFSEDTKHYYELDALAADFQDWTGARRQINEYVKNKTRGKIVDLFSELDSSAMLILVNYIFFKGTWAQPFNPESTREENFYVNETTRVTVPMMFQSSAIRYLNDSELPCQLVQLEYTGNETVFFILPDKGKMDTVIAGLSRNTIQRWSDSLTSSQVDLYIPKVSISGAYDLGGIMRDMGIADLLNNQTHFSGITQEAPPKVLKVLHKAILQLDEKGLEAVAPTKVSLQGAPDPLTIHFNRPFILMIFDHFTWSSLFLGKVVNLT
The following applies: labelled compound ([1,2,6,7-3H]cortisol); 37 °C, ≥4 h, PBS with gelatin; separation at 0 °C; serum 1/50; non-specific binding subtracted; error SEM.

Structures are written as SMILES.

Two molecules from paper PMC4778445, “Measurement of free glucocorticoids: quantifying corticosteroid-binding globulin binding affinity and its variation within and among mammalian species” (Conservation Physiology, 2015) can be followed below.

The term Kd denotes a measure of binding affinity in units of concentration. High values mean a looser complex, low ones a tighter complex.

In the case of `C[C@]12C[C@H](O)[C@H]3[C@@H](CCC4=CC(=O)CC[C@@]43C)[C@@H]1CC[C@@H]2C(=O)CO` [B, corticosterone], the Kd in [1] worked out at 4.9 ± 0.61 nM; in [2], 5.4 ± 1.2 nM.
In the case of `C[C@]12CCC(=O)C=C1CC[C@@H]1[C@@H]2[C@@H](O)C[C@@]2(C)[C@H]1CC[C@]2(O)C(=O)CO` [F, cortisol], the Kd in assay [3] amounted to 1.7 ± 0.55 nM; in assay [4], 0.8 ± 0.11 nM; in assay [5], 0.7 ± 0.19 nM; in assay [6] it was 1 ± 0.16 nM; in assay [7], 4 ± 0.4 nM; in [8], 8 ± 2.4 nM. Besides, the Kd in assay [9] came to 0.6 ± 0.15 nM.
